Assay results reported in patent publication US9073855B2, “BCL-2 selective apoptosis-inducing agents for the treatment of cancer and immune diseases” (AbbVie Inc., priority 2008, dated 2015).
pEC50, pKi: −log10 of the molar value.

Tests used:
GST-Bcl-2 = GST-Bcl-2 (Homo sapiens, UniProt P10415); experiment: TR-FRET binding assay, GST-Bcl-2 with F-Bak peptide probe; conditions: TR-FRET Binding Affinity, GST-Bcl-2, F-Bak peptide probe
How it was run: (§1)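 Displacement of a fluorescein-labelled Bak peptide from the GST-tagged protein was followed by time-resolved FRET with a terbium anti-GST donor after 3 h incubation at room temperature. Inhibition constants were calculated with Wang's equation.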

GST-Bcl-XL = GST-Bcl-XL (Homo sapiens, UniProt Q07817); experiment: TR-FRET binding assay, GST-Bcl-XL with F-Bak peptide probe; conditions: TR-FRET Binding Affinity, GST-Bcl-XL, F-Bak peptide probe
How it was run: as §1

FL5.12/Bcl-2 cells = experiment: FL5.12/Bcl-2 cell viability assay under IL-3 withdrawal (CellTitre Glo); assay type: cell-based, murine; conditions: Mus musculus, IL-3 withdrawn 48 hrs, then 24 hrs with compound
How it was run: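 Viability measured with CellTiter-Glo after 24 h compound treatment at various concentrations, following 48 h IL-3 withdrawal (no WEHI-3B medium). Cells: prolymphocytic mouse FL5.12 line stably transfected to overexpress Bcl-2, cultured at 37 °C, 5% CO2.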

GST-Bcl-XL, sequence (Q07817 whole entry): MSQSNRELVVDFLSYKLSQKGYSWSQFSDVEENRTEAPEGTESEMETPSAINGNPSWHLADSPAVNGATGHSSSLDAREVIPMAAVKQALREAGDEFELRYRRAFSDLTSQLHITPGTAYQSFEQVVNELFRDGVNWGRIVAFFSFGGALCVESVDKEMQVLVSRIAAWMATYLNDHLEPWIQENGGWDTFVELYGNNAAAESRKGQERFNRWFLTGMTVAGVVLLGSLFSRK
GST-Bcl-2, sequence (P10415 whole entry): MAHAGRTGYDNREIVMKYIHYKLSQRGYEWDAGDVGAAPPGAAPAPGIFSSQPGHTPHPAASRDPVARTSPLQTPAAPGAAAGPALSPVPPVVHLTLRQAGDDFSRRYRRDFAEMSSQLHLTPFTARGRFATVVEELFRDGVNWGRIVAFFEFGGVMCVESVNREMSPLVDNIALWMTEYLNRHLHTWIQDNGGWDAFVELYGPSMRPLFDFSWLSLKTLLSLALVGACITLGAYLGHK

| SMILES | pKi (GST-Bcl-2) | pKi (GST-Bcl-XL) | pEC50 (FL5.12/Bcl-2 cells) |
| --- | --- | --- | --- |
| CC(C)Oc1cc(-c2ccc(Cl)cc2)c(CN2CCN(c3ccc(C(=O)NS(=O)(=O)c4ccc(NCC5CCOCC5)c([N+](=O)[O-])c4)c(Oc4ccc5[nH]ccc5c4)c3)CC2)cn1 [Example 330, 4-(4-{[4-(4-chlorophenyl)-6-isopropoxypyridin-3-yl]methyl}piperazin-1-yl)-2-(1H-indol-5-yloxy)-N-({3-nitro-4-[(tetrahydro-2H-pyran-4-ylmethyl)amino]phenyl}sulfonyl)benzamide] | 7.13 | < 6.18 | < 6.30 |
| CC1(C)CCC(CN2CCN(c3ccc(C(=O)NS(=O)(=O)c4ccc(NC5(CO)CCOCC5)c([N+](=O)[O-])c4)c(Oc4ccc5[nH]ccc5c4)c3)CC2)=C(c2ccc(Cl)cc2)C1 [Example 240, 4-(4-{[2-(4-chlorophenyl)-4,4-dimethylcyclohex-1-en-1-yl]methyl}piperazin-1-yl)-N-[(4-{[4-(hydroxymethyl)tetrahydro-2H-pyran-4-yl]amino}-3-nitrophenyl)sulfonyl]-2-(1H-indol-5-yloxy)benzamide] | 9.08 | < 6.18 | 6.68 |
| CC1(C)CCC(CN2CCN(c3ccc(C(=O)NS(=O)(=O)c4ccc(OCC5CCOCC5)c([N+](=O)[O-])c4)c(Oc4ccc5[nH]ccc5c4)c3)CC2)=C(c2ccc(Cl)cc2)C1 [Example 279, 4-(4-{[2-(4-chlorophenyl)-4,4-dimethylcyclohex-1-en-1-yl]methyl}piperazin-1-yl)-2-(1H-indol-5-yloxy)-N-{[3-nitro-4-(tetrahydro-2H-pyran-4-ylmethoxy)phenyl]sulfonyl}benzamide] | 10.02 | < 6.18 | 7.79 |
| CC(c1ccccc1-c1ccc(Cl)cc1)N1CCN(c2ccc(C(=O)NS(=O)(=O)c3ccc(NCCCN4CCOCC4)c([N+](=O)[O-])c3)c(Oc3cccc4[nH]ccc34)c2)CC1 (stereo not drawn) [Example 247, 4-{4-[1-(4′-chloro-1,1′-biphenyl-2-yl)ethyl]piperazin-1-yl}-2-(1H-indol-4-yloxy)-N-({4-[(3-morpholin-4-ylpropyl)amino]-3-nitrophenyl}sulfonyl)benzamide] | 9.73 | 7.56 | 7.79 |
| CN1CCC(O)(CNc2ccc(S(=O)(=O)NC(=O)c3ccc(N4CCN(CC5=C(c6ccc(Cl)cc6)CC(C)(C)CC5)CC4)cc3Oc3cccc4[nH]ccc34)cc2[N+](=O)[O-])CC1 [Example 186, 4-(4-{[2-(4-chlorophenyl)-4,4-dimethylcyclohex-1-en-1-yl]methyl}piperazin-1-yl)-N-[(4-{[(4-hydroxy-1-methylpiperidin-4-yl)methyl]amino}-3-nitrophenyl)sulfonyl]-2-(1H-indol-4-yloxy)benzamide] | 11.00 | 7.95 | 7.69 |
| CC1(C)CCC(CN2CCN(c3ccc(C(=O)NS(=O)(=O)c4ccc(C(=O)NCC5CCOCC5)cc4)c(Oc4ccc5[nH]ccc5c4)c3)CC2)=C(c2ccc(Cl)cc2)C1 [Example 308, 4-(4-{[2-(4-chlorophenyl)-4,4-dimethylcyclohex-1-en-1-yl]methyl}piperazin-1-yl)-2-(1H-indol-5-yloxy)-N-[(4-{[(tetrahydro-2H-pyran-4-ylmethyl)amino]carbonyl}phenyl)sulfonyl]benzamide] | 7.24 | < 6.18 | < 6.30 |
| CC1(C)CCC(CN2CCN(c3ccc(C(=O)NS(=O)(=O)c4cnc(NCC5CCOCC5)c(Br)c4)c(Oc4ccc5[nH]ccc5c4)c3)CC2)=C(c2ccc(Cl)cc2)C1 [Example 350, N-({5-bromo-6-[(tetrahydro-2H-pyran-4-ylmethyl)amino]pyridin-3-yl}sulfonyl)-4-(4-{[2-(4-chlorophenyl)-4,4-dimethylcyclohex-1-en-1-yl]methyl}piperazin-1-yl)-2-(1H-indol-5-yloxy)benzamide] | 8.22 | < 6.18 | 6.51 |
| CC1(C)CCC(CN2CCN(c3ccc(C(=O)NS(=O)(=O)c4ccc(NCCCN5CCOCC5)c(S(=O)(=O)C(F)(F)F)c4)c(Oc4ccc5[nH]ccc5c4)c3)CC2)=C(c2ccc(Cl)cc2)C1 [Example 348, 4-(4-{[2-(4-chlorophenyl)-4,4-dimethylcyclohex-1-en-1-yl]methyl}piperazin-1-yl)-2-(1H-indol-5-yloxy)-N-({4-[(3-morpholin-4-ylpropyl)amino]-3-[(trifluoromethyl)sulfonyl]phenyl}sulfonyl)benzamide] | 9.52 | 7.53 | 7.06 |
| CC(c1ccccc1-c1ccc(Cl)cc1)N1CCN(c2ccc(C(=O)NS(=O)(=O)c3ccc(NCC4CCOCC4)c([N+](=O)[O-])c3)c(Oc3ccc4[nH]ccc4c3)c2)CC1 (stereo not drawn) [Example 252, 4-{4-[1-(4′-chloro-1,1′-biphenyl-2-yl)ethyl]piperazin-1-yl}-2-(1H-indol-5-yloxy)-N-({3-nitro-4-[(tetrahydro-2H-pyran-4-ylmethyl)amino]phenyl}sulfonyl)benzamide] | 10.11 | < 6.18 | 8.18 |
| COCCN1CCC(Nc2ccc(S(=O)(=O)NC(=O)c3ccc(N4CCN(CC5=C(c6ccc(Cl)cc6)CC(C)(C)CC5)CC4)cc3Oc3cccc4[nH]ccc34)cc2[N+](=O)[O-])CC1 [Example 194, 4-(4-{[2-(4-chlorophenyl)-4,4-dimethylcyclohex-1-en-1-yl]methyl}piperazin-1-yl)-2-(1H-indol-4-yloxy)-N-[(4-{[1-(2-methoxyethyl)piperidin-4-yl]amino}-3-nitrophenyl)sulfonyl]benzamide] | 9.82 | 7.49 | 7.57 |
| CC1(C)CCC(CN2CCN(c3ccc(C(=O)NS(=O)(=O)c4cnc(OCC5CCOCC5)c(C#N)c4)c(Oc4ccc5[nH]ccc5c4)c3)CC2)=C(c2ccc(Cl)cc2)C1 [Example 333, 4-(4-{[2-(4-chlorophenyl)-4,4-dimethylcyclohex-1-en-1-yl]methyl}piperazin-1-yl)-N-{[5-cyano-6-(tetrahydro-2H-pyran-4-ylmethoxy)pyridin-3-yl]sulfonyl}-2-(1H-indol-5-yloxy)benzamide] | 10.05 | < 6.18 | 6.96 |
| CC1(C)CCC(CN2CCN(c3ccc(C(=O)NS(=O)(=O)c4ccc(NCC5(C)COC5)c([N+](=O)[O-])c4)c(Oc4ccc5[nH]ccc5c4)c3)CC2)=C(c2ccc(Cl)cc2)C1 [Example 264, 4-(4-{[2-(4-chlorophenyl)-4,4-dimethylcyclohex-1-en-1-yl]methyl}piperazin-1-yl)-2-(1H-indol-5-yloxy)-N-[(4-{[(3-methyloxetan-3-yl)methyl]amino}-3-nitrophenyl)sulfonyl]benzamide] | 9.63 | < 6.18 | 7.59 |
| COCCOCCNc1ccc(S(=O)(=O)NC(=O)c2ccc(N3CCN(CC4=C(c5ccc(Cl)cc5)CC(C)(C)CC4)CC3)cc2Oc2cccc3[nH]ccc23)cc1[N+](=O)[O-] [Example 293, 4-(4-{[2-(4-chlorophenyl)-4,4-dimethylcyclohex-1-en-1-yl]methyl}piperazin-1-yl)-2-(1H-indol-4-yloxy)-N-[(4-{[2-(2-methoxyethoxy)ethyl]amino}-3-nitrophenyl)sulfonyl]benzamide] | 9.29 | 6.58 | 7.17 |
| CC1(C)CCC(CN2CCN(c3ccc(C(=O)NS(=O)(=O)c4ccc(NCC5(N)CCOCC5)c([N+](=O)[O-])c4)c(Oc4cccc5[nH]ccc45)c3)CC2)=C(c2ccc(Cl)cc2)C1 [Example 176, N-[(4-{[(4-aminotetrahydro-2H-pyran-4-yl)methyl]amino}-3-nitrophenyl)sulfonyl]-4-(4-{[2-(4-chlorophenyl)-4,4-dimethylcyclohex-1-en-1-yl]methyl}piperazin-1-yl)-2-(1H-indol-4-yloxy)benzamide] | 9.74 | 7.49 | 7.23 |
| O=C(NS(=O)(=O)c1ccc(OCC2CCOCC2)c([N+](=O)[O-])c1)c1ccc(N2CCN(Cc3ccc(C(F)(F)F)cc3-c3ccc(Cl)cc3)CC2)cc1Oc1ccc2[nH]ccc2c1 [Example 340, 4-(4-{[4′-chloro-5-(trifluoromethyl)-1,1′-biphenyl-2-yl]methyl}piperazin-1-yl)-2-(1H-indol-5-yloxy)-N-{[3-nitro-4-(tetrahydro-2H-pyran-4-ylmethoxy)phenyl]sulfonyl}benzamide] | 8.12 | < 6.18 | < 6.30 |
| CC1(C)CCC(CN2CCN(c3ccc(C(=O)NS(=O)(=O)c4ccc(S(C)(=O)=O)cc4)c(Oc4cccc5[nH]ccc45)c3)CC2)=C(c2ccc(Cl)cc2)C1 [Example 383, 4-(4-{[2-(4-chlorophenyl)-4,4-dimethylcyclohex-1-en-1-yl]methyl}piperazin-1-yl)-2-(1H-indol-4-yloxy)-N-{[4-(methylsulfonyl)phenyl]sulfonyl}benzamide] | 8.66 | < 6.18 | < 6.30 |
| CC1(C)CCC(CN2CCN(c3ccc(C(=O)NS(=O)(=O)c4cnc(OCC5CCOCC5)c(Cl)c4)c(Oc4cccc5[nH]ccc45)c3)CC2)=C(c2ccc(Cl)cc2)C1 [Example 387, 4-(4-{[2-(4-chlorophenyl)-4,4-dimethylcyclohex-1-en-1-yl]methyl}piperazin-1-yl)-N-{[5-chloro-6-(tetrahydro-2H-pyran-4-ylmethoxy)pyridin-3-yl]sulfonyl}-2-(1H-indol-4-yloxy)benzamide] | 9.79 | 6.55 | 7.06 |
